Legend:
[1] = tested on: SK-MEL-5, SK-MEL-28, and SK-MEL-30 cell lines; assay: Melanoma cell proliferation; type: cell-based; details: SK-MEL-5, SK-MEL-28 (B-Raf V600E), SK-MEL-30 (N-Ras Q61K); FIG. 3
Description: The ability of IA-9 to treat melanoma was tested using the SK-MEL-5, SK-MEL-28, and SK-MEL-30 cell lines. SK-MEL-5 and SK-MEL-28 express mutant B-Raf (V600E) and wildtype N-Ras. SK-MEL-30 expresses wildtype B-Raf and mutant N-Ras (Q61K). Cell proliferation was tested using methods described herein.

Wt-BaF3 = assay: Parental Ba/F3 cell proliferation (CellTiter Glo); type: cell-based, murine; details: Mus musculus, parental BaF/3 cells, 48 hours
Method in brief: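 Untransformed murine Ba/F3 cells, kept on 15% WEHI conditioned medium as IL3 source, were seeded at 5000 cells/well with compound. Viability was read by luminescence using CellTiter Glo diluted 1:4 in PBS, with no-cell background and vehicle controls.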

PDGFRB = PDGFRB (Homo sapiens, UniProt P09619); assay: KINOMEscan competition binding; details: read-out: Percent Control
Method in brief: (§1)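 Read-out is % Ctrl (lower = stronger hit) from a single 10 μM primary screen in which the compound competes with an immobilized active-site ligand.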

MAP4K4 = MAP4K4 (Homo sapiens, UniProt O95819); assay: KINOMEscan competition binding; details: read-out: Percent Control
Method in brief: as §1

TNNI3K = molecular target: T1, TNNI3K (Homo sapiens, UniProt Q59H18); assay: KINOMEscan competition binding; details: read-out: Percent Control
T1 construct: purchased KINOMEscan (panel service)
T1 sequence (Q59H18 whole entry): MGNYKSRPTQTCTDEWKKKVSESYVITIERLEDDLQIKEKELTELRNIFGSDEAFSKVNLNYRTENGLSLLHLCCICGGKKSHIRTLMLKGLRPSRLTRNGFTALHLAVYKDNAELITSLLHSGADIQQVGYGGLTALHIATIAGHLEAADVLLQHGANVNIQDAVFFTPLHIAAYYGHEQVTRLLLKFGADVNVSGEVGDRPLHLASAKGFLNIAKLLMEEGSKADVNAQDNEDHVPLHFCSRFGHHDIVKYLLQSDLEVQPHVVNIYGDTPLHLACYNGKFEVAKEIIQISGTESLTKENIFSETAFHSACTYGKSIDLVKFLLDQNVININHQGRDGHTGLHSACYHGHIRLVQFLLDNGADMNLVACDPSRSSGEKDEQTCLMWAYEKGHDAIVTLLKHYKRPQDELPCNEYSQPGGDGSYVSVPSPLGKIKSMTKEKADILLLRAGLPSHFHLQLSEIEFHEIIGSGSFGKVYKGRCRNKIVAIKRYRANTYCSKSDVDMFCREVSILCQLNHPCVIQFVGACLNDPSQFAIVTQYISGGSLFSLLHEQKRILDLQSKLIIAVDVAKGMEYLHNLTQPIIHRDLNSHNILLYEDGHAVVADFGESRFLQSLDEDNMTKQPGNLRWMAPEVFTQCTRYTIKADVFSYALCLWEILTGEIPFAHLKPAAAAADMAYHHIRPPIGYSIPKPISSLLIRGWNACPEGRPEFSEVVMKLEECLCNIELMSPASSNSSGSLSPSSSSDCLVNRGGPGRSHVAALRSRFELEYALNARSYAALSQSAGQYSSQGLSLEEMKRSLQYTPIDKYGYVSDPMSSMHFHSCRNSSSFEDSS
Method in brief: as §1

IKK-alpha = IKK-alpha (Homo sapiens, UniProt O15111); assay: KINOMEscan competition binding; details: IKK-alpha (Entrez CHUK), read-out: Percent Control
Method in brief: as §1

KIT(D816H) = KIT(D816H) (Homo sapiens, UniProt P10721, D816H); assay: KINOMEscan competition binding; details: read-out: Percent Control
Method in brief: as §1

KIT(L576P) = KIT(L576P) (Homo sapiens, UniProt P10721, L576P); assay: KINOMEscan competition binding; details: read-out: Percent Control
Method in brief: as §1

ROS1 = molecular target: T2, ROS1 (Homo sapiens, UniProt P08922); assay: KINOMEscan competition binding; details: read-out: Percent Control
T2 construct: purchased KINOMEscan (screening service)
Method in brief: as §1

FGFR2 = FGFR2 (Homo sapiens, UniProt P21802); assay: KINOMEscan competition binding; details: read-out: Percent Control
Method in brief: as §1

DRAK1 = molecular target: T3, DRAK1 (Homo sapiens, UniProt Q9UEE5); assay: KINOMEscan competition binding; details: DRAK1 (Entrez STK17A), read-out: Percent Control
T3 construct: purchased KINOMEscan (screening platform)
Method in brief: as §1

FER = FER (Homo sapiens, UniProt P16591); assay: KINOMEscan competition binding; details: read-out: Percent Control
Method in brief: as §1

[2] = molecular target: EGFR(L747-S752del, P753S) (Homo sapiens, UniProt P00533, DEL747-752/P753S); assay: KINOMEscan competition binding; details: read-out: Percent Control
Chain of EGFR(L747-S752del, P753S) (P00533 with tags, fused parts or gaps DEL747-752/P753S): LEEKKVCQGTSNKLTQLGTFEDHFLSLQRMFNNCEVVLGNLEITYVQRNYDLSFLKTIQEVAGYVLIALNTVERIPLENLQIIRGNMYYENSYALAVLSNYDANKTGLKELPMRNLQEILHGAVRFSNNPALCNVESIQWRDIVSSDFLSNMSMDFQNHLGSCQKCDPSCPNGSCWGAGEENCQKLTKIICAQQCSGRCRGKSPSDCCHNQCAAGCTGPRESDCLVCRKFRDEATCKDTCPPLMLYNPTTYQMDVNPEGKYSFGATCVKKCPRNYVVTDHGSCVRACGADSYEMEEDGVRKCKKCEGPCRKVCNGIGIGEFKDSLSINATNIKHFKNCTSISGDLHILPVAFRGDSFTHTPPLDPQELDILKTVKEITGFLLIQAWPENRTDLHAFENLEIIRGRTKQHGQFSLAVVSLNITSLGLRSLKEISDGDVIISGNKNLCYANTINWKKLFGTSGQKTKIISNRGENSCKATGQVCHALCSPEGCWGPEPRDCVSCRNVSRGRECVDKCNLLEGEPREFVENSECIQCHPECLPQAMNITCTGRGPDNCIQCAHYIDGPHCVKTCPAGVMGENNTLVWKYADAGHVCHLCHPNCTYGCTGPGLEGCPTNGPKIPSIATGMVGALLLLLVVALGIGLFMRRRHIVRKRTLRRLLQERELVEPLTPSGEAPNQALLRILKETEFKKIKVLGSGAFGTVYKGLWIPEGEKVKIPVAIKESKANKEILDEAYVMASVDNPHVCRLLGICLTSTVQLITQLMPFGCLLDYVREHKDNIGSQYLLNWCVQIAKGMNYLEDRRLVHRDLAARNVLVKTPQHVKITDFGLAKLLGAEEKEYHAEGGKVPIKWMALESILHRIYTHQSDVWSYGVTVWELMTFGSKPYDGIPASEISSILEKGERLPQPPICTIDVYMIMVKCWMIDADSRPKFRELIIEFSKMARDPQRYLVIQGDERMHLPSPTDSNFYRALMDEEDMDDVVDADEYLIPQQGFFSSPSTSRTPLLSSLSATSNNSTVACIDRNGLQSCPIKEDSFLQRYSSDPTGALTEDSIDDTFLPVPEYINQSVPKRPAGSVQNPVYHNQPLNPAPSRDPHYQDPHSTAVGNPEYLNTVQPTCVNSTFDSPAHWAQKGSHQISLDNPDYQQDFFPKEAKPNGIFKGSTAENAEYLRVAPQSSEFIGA
Method in brief: as §1

AURKB = molecular target: T4, AURKB (Homo sapiens, UniProt Q96GD4); assay: KINOMEscan competition binding; details: read-out: Percent Control
T4 construct: purchased KINOMEscan (screening service)
Method in brief: as §1

WNK3 = molecular target: T5, WNK3 (Homo sapiens, UniProt Q9BYP7); assay: KINOMEscan competition binding; details: read-out: Percent Control
T5 construct: purchased KINOMEscan (screening service)
Method in brief: as §1

DDR1 = DDR1 (Homo sapiens, UniProt Q08345); assay: KINOMEscan competition binding; details: read-out: Percent Control
Chain of DDR1 (Q08345 19-913): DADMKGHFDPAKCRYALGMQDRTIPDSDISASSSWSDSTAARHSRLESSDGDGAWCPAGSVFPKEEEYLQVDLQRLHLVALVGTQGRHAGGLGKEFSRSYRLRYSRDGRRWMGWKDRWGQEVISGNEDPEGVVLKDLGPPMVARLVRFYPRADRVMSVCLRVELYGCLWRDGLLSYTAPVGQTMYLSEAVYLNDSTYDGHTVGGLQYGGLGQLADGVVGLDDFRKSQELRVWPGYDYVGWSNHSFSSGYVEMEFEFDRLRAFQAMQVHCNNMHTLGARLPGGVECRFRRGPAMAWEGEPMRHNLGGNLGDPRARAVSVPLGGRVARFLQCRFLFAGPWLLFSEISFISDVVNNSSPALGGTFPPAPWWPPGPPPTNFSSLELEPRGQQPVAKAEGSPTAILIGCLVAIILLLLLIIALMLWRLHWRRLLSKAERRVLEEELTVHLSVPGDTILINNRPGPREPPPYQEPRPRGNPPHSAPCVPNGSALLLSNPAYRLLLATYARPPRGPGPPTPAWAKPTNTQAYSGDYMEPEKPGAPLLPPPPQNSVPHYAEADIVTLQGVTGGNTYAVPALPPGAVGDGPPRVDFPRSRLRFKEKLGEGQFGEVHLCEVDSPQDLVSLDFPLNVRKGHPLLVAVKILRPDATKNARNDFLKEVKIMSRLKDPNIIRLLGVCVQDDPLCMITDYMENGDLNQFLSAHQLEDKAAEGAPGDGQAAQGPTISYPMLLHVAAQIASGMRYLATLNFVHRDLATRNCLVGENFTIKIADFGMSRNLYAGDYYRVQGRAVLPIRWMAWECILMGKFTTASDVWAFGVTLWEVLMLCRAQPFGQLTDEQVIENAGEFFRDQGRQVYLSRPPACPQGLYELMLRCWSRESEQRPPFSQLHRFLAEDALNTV
Method in brief: as §1

TRPM6 = molecular target: T6, TRPM6 (Homo sapiens, UniProt Q9BX84); assay: KINOMEscan competition binding; details: read-out: Percent Control
T6 construct: purchased KINOMEscan (screening platform)
Method in brief: as §1

FGFR1 = FGFR1 (Homo sapiens, UniProt P11362); assay: KINOMEscan competition binding; details: read-out: Percent Control
Chain of FGFR1 (P11362 22-822): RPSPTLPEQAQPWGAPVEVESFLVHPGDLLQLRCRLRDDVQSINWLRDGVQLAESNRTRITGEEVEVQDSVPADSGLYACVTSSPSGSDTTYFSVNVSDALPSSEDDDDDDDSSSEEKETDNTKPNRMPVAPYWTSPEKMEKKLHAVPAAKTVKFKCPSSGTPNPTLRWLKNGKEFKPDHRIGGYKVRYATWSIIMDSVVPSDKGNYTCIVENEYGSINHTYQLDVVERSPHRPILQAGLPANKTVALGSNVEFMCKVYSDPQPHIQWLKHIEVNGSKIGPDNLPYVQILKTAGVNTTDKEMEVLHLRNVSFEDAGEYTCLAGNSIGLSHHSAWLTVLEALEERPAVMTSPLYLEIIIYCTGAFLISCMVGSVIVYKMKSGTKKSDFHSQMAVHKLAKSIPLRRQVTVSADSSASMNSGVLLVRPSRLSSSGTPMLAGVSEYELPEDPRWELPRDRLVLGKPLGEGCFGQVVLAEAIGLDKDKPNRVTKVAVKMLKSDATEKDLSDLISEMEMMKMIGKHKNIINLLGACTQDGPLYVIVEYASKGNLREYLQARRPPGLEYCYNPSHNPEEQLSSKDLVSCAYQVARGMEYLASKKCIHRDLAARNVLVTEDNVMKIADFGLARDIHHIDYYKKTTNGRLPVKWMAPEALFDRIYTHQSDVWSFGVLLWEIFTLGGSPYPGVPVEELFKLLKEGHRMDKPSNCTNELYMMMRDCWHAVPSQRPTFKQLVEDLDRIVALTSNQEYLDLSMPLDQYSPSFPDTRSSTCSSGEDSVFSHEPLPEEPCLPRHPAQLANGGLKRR
Method in brief: as §1

CDC2L1 = molecular target: T7, CDC2L1 (Homo sapiens, UniProt P21127); assay: KINOMEscan competition binding; details: CDC2L1 (Entrez CDK11B), read-out: Percent Control
T7 construct: purchased KINOMEscan (screening service)
Method in brief: as §1

EGFR(T790M) = molecular target: T8, EGFR(T790M) (Homo sapiens, UniProt P00533, T790M); assay: KINOMEscan competition binding; details: read-out: Percent Control
T8 construct: purchased KINOMEscan (screening service)
T8 sequence (P00533 25-1210 T790M): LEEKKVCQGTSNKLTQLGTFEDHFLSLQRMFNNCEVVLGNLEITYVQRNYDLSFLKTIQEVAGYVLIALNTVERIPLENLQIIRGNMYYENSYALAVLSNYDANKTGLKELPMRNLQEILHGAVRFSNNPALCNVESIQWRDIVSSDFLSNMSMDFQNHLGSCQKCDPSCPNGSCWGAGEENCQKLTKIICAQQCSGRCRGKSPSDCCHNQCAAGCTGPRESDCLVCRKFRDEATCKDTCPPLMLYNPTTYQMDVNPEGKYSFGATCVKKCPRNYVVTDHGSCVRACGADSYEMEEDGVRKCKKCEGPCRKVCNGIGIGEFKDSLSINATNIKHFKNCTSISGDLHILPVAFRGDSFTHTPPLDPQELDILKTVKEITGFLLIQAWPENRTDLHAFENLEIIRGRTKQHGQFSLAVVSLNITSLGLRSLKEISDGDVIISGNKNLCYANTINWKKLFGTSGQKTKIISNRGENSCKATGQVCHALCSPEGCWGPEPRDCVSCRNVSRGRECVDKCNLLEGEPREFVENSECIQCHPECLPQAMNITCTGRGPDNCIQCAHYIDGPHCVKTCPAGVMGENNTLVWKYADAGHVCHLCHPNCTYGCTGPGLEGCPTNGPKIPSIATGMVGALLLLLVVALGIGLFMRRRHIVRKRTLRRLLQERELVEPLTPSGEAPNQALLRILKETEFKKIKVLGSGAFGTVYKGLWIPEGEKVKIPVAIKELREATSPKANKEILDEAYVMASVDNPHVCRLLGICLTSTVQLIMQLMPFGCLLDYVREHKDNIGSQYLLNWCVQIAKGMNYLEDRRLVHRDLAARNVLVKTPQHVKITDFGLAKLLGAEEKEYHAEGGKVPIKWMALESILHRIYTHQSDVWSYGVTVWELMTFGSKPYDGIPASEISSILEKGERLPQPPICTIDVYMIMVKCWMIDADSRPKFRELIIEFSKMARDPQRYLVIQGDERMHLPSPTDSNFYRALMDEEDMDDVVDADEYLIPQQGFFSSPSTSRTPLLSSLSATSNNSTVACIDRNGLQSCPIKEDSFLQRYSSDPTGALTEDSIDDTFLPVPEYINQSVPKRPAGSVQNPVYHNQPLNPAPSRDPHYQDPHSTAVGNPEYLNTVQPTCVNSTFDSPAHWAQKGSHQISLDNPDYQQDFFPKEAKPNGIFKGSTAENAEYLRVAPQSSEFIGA
Method in brief: as §1

HPK1 = HPK1 (Homo sapiens, UniProt Q92918); assay: KINOMEscan competition binding; details: HPK1 (Entrez MAP4K1), read-out: Percent Control
Method in brief: as §1

[3] = molecular target: EGFR(L747-E749del, A750P) (Homo sapiens, UniProt P00533, A750P/DEL747-749); assay: KINOMEscan competition binding; details: read-out: Percent Control
Method in brief: as §1

KIT = molecular target: T9, KIT (Homo sapiens, UniProt P10721); assay: KINOMEscan competition binding; details: read-out: Percent Control
T9 construct: purchased KINOMEscan (panel service)
Method in brief: as §1

TAK1 = molecular target: T10, TAK1 (Homo sapiens, UniProt O43318); assay: KINOMEscan competition binding; details: TAK1 (Entrez MAP3K7), read-out: Percent Control
T10 construct: purchased KINOMEscan (panel service)
Method in brief: as §1

[4] = molecular target: ABL1(F317L)-phosphorylated (Homo sapiens, UniProt P00519, F317L); assay: KINOMEscan competition binding; details: read-out: Percent Control
Method in brief: as §1

**Q.** `Cc1ccc(Nc2ncc3c(n2)N(C)CN(c2cc(NC(=O)c4cccc(C(F)(F)F)c4)ccc2C)C3)cn1` [IA-9, N-(4-methyl-3-(1-methyl-7-((6-methylpyridin-3-yl)amino)-1,4-dihydropyrimido[4,5-d]pyrimidin-3(2H)-yl)phenyl)-3-(trifluoromethyl)benzamide] was tested. Which “reduction of proliferation of melanoma cells” value [1] did it give?
**A.** reduce the proliferation of melanoma cells

**Q.** And the IC50 (Wt-BaF3)?
**A.** 5.38 µM

**Q.** What about the remaining binding at 10 µM (PDGFRB) of the same compound?
**A.** 0%

**Q.** What about the remaining binding at 10 µM (MAP4K4) of the same compound?
**A.** 0.6%

**Q.** What about the remaining binding at 10 µM (TNNI3K) of the same compound?
**A.** 0.1%

**Q.** And the remaining binding at 10 µM (IKK-alpha)?
**A.** 1%

**Q.** What about the remaining binding at 10 µM (KIT(D816H)) of the same compound?
**A.** 5.4%

**Q.** And the remaining binding at 10 µM (KIT(L576P))?
**A.** 1.2%

**Q.** What about the remaining binding at 10 µM (ROS1) of the same compound?
**A.** 17%

**Q.** And the remaining binding at 10 µM (FGFR2)?
**A.** 2.7%

**Q.** What about the remaining binding at 10 µM (DRAK1) of the same compound?
**A.** 22%

**Q.** What about the remaining binding at 10 µM (FER) of the same compound?
**A.** 3.6%

**Q.** And the remaining binding at 10 µM [2]?
**A.** 0%

**Q.** What about the remaining binding at 10 µM (AURKB) of the same compound?
**A.** 15%

**Q.** And the remaining binding at 10 µM (WNK3)?
**A.** 18%

**Q.** What about the remaining binding at 10 µM (DDR1) of the same compound?
**A.** 1.1%

**Q.** What about the remaining binding at 10 µM (TRPM6) of the same compound?
**A.** 26%

**Q.** What about the remaining binding at 10 µM (FGFR1) of the same compound?
**A.** 1.3%

**Q.** And the remaining binding at 10 µM (CDC2L1)?
**A.** 15%

**Q.** And the remaining binding at 10 µM (EGFR(T790M))?
**A.** 13%

**Q.** What about the remaining binding at 10 µM (HPK1) of the same compound?
**A.** 3.8%

**Q.** What about the remaining binding at 10 µM [3] of the same compound?
**A.** 0%

**Q.** And the remaining binding at 10 µM (KIT)?
**A.** 0.05%

**Q.** What about the remaining binding at 10 µM (TAK1) of the same compound?
**A.** 0.1%

**Q.** And the remaining binding at 10 µM [4]?
**A.** 3.2%
